{"source": "patent US12427151B2", "about": "“Compositions and method of treating cancer” (The Regents of the University of California, priority 2017, dated 2025)", "key": {"MRSA USA300": {"test_system": "MRSA USA300", "test": "MBC determination", "assay_type": "cell-based, methicillin-resistant S. aureus", "conditions": "Staphylococcus aureus, 3-log reduction, 24 hour, 37° C., half strength MHB in PBS", "description": "(§1) To determine MBC, bacteria were cultured in TSB (Staphylococcus), THB (Streptococcus) or Nutrient broth (P. aeruginosa and E. coli) by reaching exponential phase (OD600=0.5-0.8). […] After incubation, the number of viable bacteria was measured by counting CFU after spreading 10-fold serial dilutions of bacteria on suitable agar plates. MBC was determined as a 3-log reduction (99.9%) of viable bacteria after 24 hour incubation.\n(§2) Antimicrobial activity of 6-HAP in vitro. To examine the specificity of 6-HAP for various bacteria, minimal bactericidal concentrations (MBCs) were determined according to dose-dependent killing curves at 24 hrs of incubation in vitro (Table 1). 6-HAP killed or suppressed growth of several major skin pathogens including GAS (NZ131), group B Streptococcus (GBS) (DK23), methicillin-sensitive S. aureus (ATCC35556), methicillin-resistant S. aureus (MRSA) strains (USA300 and Sanger252), Pseudomonas aeruginosa (P. aeruginosa) (ATCC14213) in vitro. […] S. epidermidis (ATCC12228) was also resistant to 6-HAP."}, "MRSA Sanger252": {"test_system": "MRSA Sanger252", "test": "MBC determination", "assay_type": "cell-based, methicillin-resistant S. aureus", "conditions": "Staphylococcus aureus, 3-log reduction, 24 hour, 37° C., half strength MHB in PBS", "description": "as §1, §2"}, "[1]": {"test_system": "L5178Y tk+/- mouse lymphoma cells", "test": "Mutagenic activity at the thymidine kinase (tk) locus", "assay_type": "cell-based", "conditions": "compared to vehicle", "description": "Because some nucleobase analogs exert mutagenic activities due to their misrecognition of wrong bases, mutagenic activity of 6-HAP was determined by detecting mutagenic events at the thymidine kinase (tk) locus of L5178Y tk^+/− mouse lymphoma cells."}, "GAS": {"test_system": "GAS", "test": "Time course killing of GAS", "assay_type": "cell-based, group A Streptococcus", "conditions": "THB; 6-HAP 25 μg/mL, mitomycin C 5 μg/mL, LL-37 10 μM", "description": "(a) Time course killing of GAS in THB containing 6-HAP (25 μg/mL), mitomycin C (5 μg/mL), or LL-37 (10 μM). At each indicated time point, live GAS in the media was measured by counting CFU on an agar plate. The data represent mean±SE of four individual experiments. (b) Membrane permeability of GAS incubated in THB containing 6-HAP (25 μg/mL), mitomycin C (5 μg/mL) and LL-37 (10 μM) for 1 hr. The bacteria with compromised plasma membranes (Red) can be distinguished from those with intact membranes (Green). (c) BrdU incorporation into nascent DNA of GAS after incubation with 6-HAP (25 μg/mL) or mitomycin C (5 μg/mL) in THB containing BrdU (10 μM) for 30 or 60 min. (d) BrdU incorporation into nascent DNA of S. epidermidis ATCC12228 after incubation with 6-HAP (25 μg/mL) or mitomycin C (5 μg/mL) in THB containing BrdU (10 μM) for 60 min. The data represent mean±SE of five individual experiments (*P<0.05 and **P<0.01 by Student's t-test vs vehicle control). (e-f) Capacity of 6-HAP to block in vitro DNA extension by Klenow fragment polymerase. Extension reaction was carried out with IRDye800-labeled 18-nt primer (SEQ ID NO:57) and 25-nt template which required adenosine (X=T) or cytidine (X=G) at the initial base for extension (SEQ ID NO:58) (e). Extension reaction was analyzed on a 20% acrylamide gel by electrophoresis (f). […] GAS survival was measured by counting CFU. […]"}, "[2]": {"test_system": "Pam212 squamous cell carcinoma", "test": "Cell proliferation assay (BrdU incorporation)", "assay_type": "cell-based, mouse", "conditions": "Pam212, 4-hr incubation", "description": "(a-b) Selective antiproliferative activity of 6-HAP against Pam212 squamous cell carcinoma, but not against normal keratinocytes. BrdU incorporation into Pam212 cells (b) or NHEKs (b) after 4-hr or 24-hr incubation, respectively, in suitable media containing indicated concentrations of 6-HAP or mitomycin C (10 μg/mL) (a). (c) Expression of mARC1 and mARC2 in NHEKs, squamous cell carcinoma (Pam212), melanoma (B16F10) and lymphoma cell lines (L5178). To compare relative expression level in each cells, data was shown as relative to GAPDH expression. (d) Expression of mARC1 and mARC2 in NHEKs treated with control siRNA, mARCI siRNA and mARC2 siRNA. (e) Effect of gene silencing with mARC1 and mARC2 siRNA on sensitivity to 6-HAP in NHEKs. NHEKs treated with each siRNA were incubated for 48 hrs and then incubated with 10 μg/mL of 6-HAP for 24 hrs.\nCell culture and cell proliferation assay. B16F10 mouse melanoma, Pam212, L5178 and YAC-1 mouse […] cell lines were obtained from American Type Culture Collection. […] After 4-hr (tumor cell lines) or 24-hr (NHEK) incubation with 6-HAP, proliferative activity of cells was colorimetrically determined by monitoring BrdU incorporation with Cell Proliferation kit according to the manual (Roche)."}, "P. acnes ATCC6919": {"test_system": "P. acnes ATCC6919", "test": "MBC determination", "assay_type": "cell-based, Propionibacterium acnes", "conditions": "Cutibacterium acnes, 3-log reduction, 24 hour, 37° C., half strength MHB in PBS"}}}
{"molecule": "ONc1ncnc2nc[nH]c12", "note": "[6-HAP, 6-N-hydroxyaminopurine]", "values": [{"measurement": "MBC", "setting": "MRSA USA300", "value": 6.25, "unit": "µg/mL"}, {"measurement": "MBC", "setting": "MRSA Sanger252", "value": 0.781, "unit": "µg/mL"}, {"measurement": "mutagenic activity, mutation frequency at tk locus", "setting": "[1]", "value": "did not detect a difference"}, {"measurement": "kinetics of killing, growth of GAS over time", "setting": "GAS", "value": "at a rate similar to mitomycin C but slower than LL37"}, {"measurement": "BrdU incorporation", "setting": "[2]", "value": "inhibited"}, {"measurement": "MBC", "setting": "P. acnes ATCC6919", "value": "> 100", "unit": "µg/mL"}]}
